What is called IC50 is the concentration that gives 50% inhibition.

Activity calls are given as the source filed them. No rule for the calls is given here. Some results are limits rather than exact numbers.

For 47 compounds, IC50 results are on record in PubChem BioAssay AID624344 (Sanford-Burnham Center for Chemical Genomics, 2012).

The nature of assay [1]: NFkB reporter suppression in cystic fibrosis bronchial cells – cell-based, uHTS hits, panel, cytotoxicity readout, dose response (AID 624344). As to conditions: CF bronchial epithelial cells, PAF-induced NFkB reporter inhibition; with PAF, mean of runs.
Assay [2] concerns Cytotoxicity. The assay is described as above. Conditions: CF bronchial epithelial cells, mean of runs.

With `CC1(Cc2ccc(F)cc2)C(=O)Nc2ccc(-c3cccnc3)cc21` (centres undefined), the IC50 in assay [1] is 2.54 µM; in assay [2], 18.8 µM.

With `Nc1ncc([N+](=O)[O-])c(N2CCCCCC2)n1`, the IC50 in assay [1] is 2.28 µM; in assay [2] it was > 79 µM (inactive).

As for `C[C@@H]1CC=C[C@H]2[C@H]1C(=O)N(Cc1ccccc1)[C@H]2c1ccc2ccccc2c1Br`, the IC50 in assay [1] is 5.04 µM; in assay [2], 12.9 µM.

As for `CN(Cc1ccccc1)c1ncnc(N)c1[N+](=O)[O-]`, the IC50 is 3.49 µM in assay [1] and 54.8 µM (inactive) in assay [2].

For `COc1ccc(-c2cc(NC=O)c3ncc(-c4ccc(OC)c(OC)c4)n3c2)c(OC)c1`, the IC50 is 11.7 µM in assay [1] and 29.8 µM in assay [2].

In the case of `COc1ccc(-c2cc(NC=O)c3ncc(-c4cc(OC)c(OC)c(OC)c4)n3c2)cc1`, the IC50 was > 79 µM (inactive) in assay [1] and 28.9 µM in assay [2].

For the compound `COc1ccc(CN2C[C@H]3CCCN3c3cc(Br)ccc3S2(=O)=O)cc1`, the IC50 in assay [1] is 9.73 µM; in assay [2], 61.7 µM (inactive).

As for `C=C1C(C)C2C(Cc3ccccc3)NC(=O)C23OC(=O)/C=C/C(O)CCCC(C)C/C=C/C3C1O` (centres undefined), the IC50 is 1.25 µM in assay [1] and 2.32 µM in assay [2].

As for `COc1ccc2cc(C(N)=O)c(=Nc3ccc(C)cc3)oc2c1`, the IC50 was 2.58 µM in assay [1] and 13.3 µM in assay [2].

Turning to `O=c1c(-c2c(O)cc(O)c3c2O[C@H](c2ccc(O)cc2)CC3)c(-c2ccc(O)cc2)oc2cc(O)cc(O)c12`, the results for the IC50 in assay [1] and in assay [2] were 1.44 µM and 5.44 µM, respectively.

In the case of `c1ccc(-c2nc3nonc3nc2-c2ccccc2)cc1`, the IC50 is 12.2 µM in assay [1] and 45.4 µM in assay [2].

As for `COc1ccc(C2=Nn3c(nnc3-c3ccccc3OC)SC2)cc1OC1CCCC1`, the figures for the IC50 in assay [1] and in assay [2] were 0.229 µM and > 79 µM (inactive), respectively.

Consider `C=C(C)[C@@H]1CC[C@]2(C(=O)O)CC[C@]3(C)[C@H](CC[C@@H]4[C@@]5(C)CC[C@H](O)C(C)(C)[C@@H]5CC[C@]43C)[C@@H]12`, for which the IC50 result in assay [1] was “inactive”. In addition, in assay [2], the IC50 is 42.2 µM.

On to `CCSc1nsc(NC(=O)Nc2cccc(OC)c2)n1`, for which the IC50 in assay [1] is 4.22 µM; in assay [2] it was 23.3 µM.

Consider `C=CC(=O)Nc1cccc(Oc2ncnc3[nH]cc(-c4cnc5ccccc5c4)c23)c1`, for which the half-maximal inhibitory concentration (IC50) was 1.35 µM in assay [1] and 54.8 µM (inactive) in assay [2].

Consider `COc1ccccc1-c1cc(NC=O)c2ncc(-c3ccc(F)cc3)n2c1`, for which the IC50 in assay [1] was 4.08 µM; in assay [2], 46.1 µM.

Consider `CC(=O)N1CC(=O)N=C1SCC(=O)Nc1nc(C)c(-c2ccccc2)s1`, for which the values for the IC50 in assay [1] and in assay [2] were 9.21 µM and 59.7 µM (inactive), respectively.

Consider `Cc1cccc(N(Cc2cc(=O)[nH]c3ccccc23)C(=O)CCl)c1`, for which the IC50 in assay [1] was 1.23 µM; in assay [2] it was 2 µM.

As to `C=C1C(=O)[C@]23C[C@H]1CC[C@H]2[C@]1(C)[C@@H](O)CC[C@@](C)(C(=O)O)[C@H]1C[C@@H]3O`, the IC50 in assay [1] is 2.04 µM; in assay [2], 12.5 µM.

`Clc1cccc(Nc2ncnc3ccc(Br)cc23)c1`: the IC50 in assay [1] was 3.53 µM; in assay [2] it was 15.1 µM.

`CN(c1ncnc(N)c1[N+](=O)[O-])C1CCCCC1`: the IC50 in assay [1] is 1.09 µM; in assay [2], > 79 µM (inactive).

Turning to `C/C=C/COC(=O)c1[nH]c2c(c1C)C(=O)CC(c1ccco1)C2` (centres undefined), the IC50 result in assay [1] is “inactive”. For the same compound, the IC50 in assay [2] was 52.8 µM (inactive).

With `Cc1c(NC(=O)c2cc(-c3cccs3)nc3ccccc23)c(=O)n(-c2ccccc2)n1C`, the IC50 in assay [1] was 4.08 µM; in assay [2] it was 8.78 µM.

Consider `CC[C@H](CO)Nc1nc(Nc2cccc(Cl)c2)c2ncn(C(C)C)c2n1`, for which the IC50 is 3.53 µM in assay [1] and 8.91 µM in assay [2].

As to `O=C1NC(=S)N/C1=C/c1cccnc1`, the concentration for half-maximal inhibition (IC50) was 5.96 µM in assay [1] and 41.8 µM in assay [2].

`Cc1cccc2sc(N(CCCN(C)C)C(=O)CCS(=O)(=O)c3ccccc3)nc12`: the IC50 in assay [1] was 3.22 µM; in assay [2] it was 7.52 µM.

`CC(=O)c1ccc(-c2cnc3c(NC=O)cc(-c4ccc(C(=O)NC5CC5)cc4)cn23)cc1`: the figures for the 50% inhibitory concentration (IC50) in assay [1] and in assay [2] were 4.25 µM and 27.4 µM, respectively.

In the case of `NC(c1csc(NC(=O)Nc2cccc(Cl)c2)n1)c1ccccc1Cl` (centres undefined), the IC50 in assay [1] was 7.54 µM; in assay [2], 21.7 µM.

Turning to `CN(C)C(=O)c1cccc(-c2cnc3sc(NCc4ccc5c(c4)OCO5)nn23)c1`, the IC50 in assay [1] was 1.69 µM; in assay [2] it was 46.5 µM.

For `CCN1CCN(Cc2ccc(NC(=O)c3ccc(C)c(NC(=O)N4CCNC4=O)c3)cc2C(F)(F)F)CC1`, the IC50 in assay [1] was 1.62 µM; in assay [2] it was 29.2 µM.

Turning to `CCC(=NCCc1c(C)[nH]c2ccc(C)cc12)C1=C(O)CC(c2ccccc2)CC1=O` (centres undefined), the IC50 in assay [1] is 7.89 µM; in assay [2] it was > 79 µM (inactive).

Regarding `CC(C)(C)OC(=O)NCC(=O)Oc1cc2oc(=O)cc(-c3ccccc3)c2cc1Cl`, the concentration for half-maximal inhibition (IC50) in assay [1] was 1.2 µM; in assay [2], 15.3 µM.

In the case of `COc1cc(C2c3cc4c(cc3CC3COC(=O)C32)OCO4)cc(OC)c1O` (centres undefined), the IC50 in assay [1] and in assay [2] was > 79 µM (inactive) each time.

For the compound `CCn1c2ccccc2c2cc(/C=N/O)ccc21`, the IC50 was 3.38 µM in assay [1] and 46.4 µM in assay [2].

Regarding `Cc1nc2c(O)c3c(c(O)c2nc1C)C1C=CC3CC1`, the concentration for half-maximal inhibition (IC50) in assay [1] was 5.67 µM; in assay [2], 7.03 µM.

On to `CCCCNc1c(-c2cccc(-c3ccc(OC)cc3)c2)nc2ccc(C)cn12`, for which the values for the IC50 in assay [1] and in assay [2] were 4.98 µM and 1.72 µM, respectively.

In the case of `COc1cc(CCc2ccccc2)c(C(=O)O)c(O)c1C/C=C(/C)CCC=C(C)C`, the values for the IC50 in assay [1] and in assay [2] were 6.26 µM and 14.7 µM, respectively.

Consider `Cc1ccc(S(=O)(=O)Nc2nc3ccccc3nc2Nc2cccc(S(=O)(=O)N3CCCC3)c2)cc1`, for which the IC50 in assay [1] is 3.57 µM; in assay [2], 41.3 µM.

Consider `C[C@H]1CCCC(=O)CCC/C=C/c2cc(O)cc(O)c2C(=O)O1`, for which the IC50 was 14 µM in assay [1] and 25.9 µM in assay [2].

`O=[N+]([O-])c1cccc(/C=N/Nc2cc(N3CCOCC3)ncn2)c1`: the IC50 is 3.21 µM in assay [1] and 19.1 µM in assay [2].

With `Clc1ccccc1C1=Nn2c(nnc2-c2ccncc2)SC1`, the IC50 in assay [1] was 0.624 µM; in assay [2], > 79 µM (inactive).

As for `Cn1c(=O)c2c(nc(Oc3ccc4ccccc4c3)n2C)n(C)c1=O`, the IC50 in assay [1] was 9.64 µM; in assay [2] it was > 79 µM (inactive).

For the compound `CCCc1nnc(NC(=O)c2nc(S(=O)(=O)Cc3ccc(C)cc3)ncc2Cl)s1`, the IC50 is 1.23 µM in assay [1] and 3.08 µM in assay [2].

Turning to `COc1ccccc1Cn1c(=O)c2ccccc2n2c(Sc3ncnc4sccc34)nnc12`, the results for the IC50 in assay [1] and in assay [2] were 3.9 µM and 5.9 µM, respectively.

With `CC(=O)c1c(C)n(C2CCCCC2)c2ccc(O)cc12`, the IC50 in assay [1] was 0.797 µM; in assay [2], > 79 µM (inactive).

As to `CC1(C)CC(=O)C=C(NC2=CC3OC(c4ccccc4)OCC3OC2=O)C1` (centres undefined), the 50% inhibitory concentration (IC50) in assay [1] was 3.35 µM; in assay [2], 16.9 µM.

With `O=C(Nc1ccc(N2CCN(C(=O)c3ccccc3F)CC2)cc1)c1cncc(Br)c1`, the IC50 in assay [1] was 2.67 µM; in assay [2] it was 54.7 µM (inactive).
